These results are taken from patent publication US20220089609A1, “SUBSTITUTED QUINAZOLINONE DERIVATIVES AND THEIR USE AS POSITIVE ALLOSTERIC MODULATORS OF MGLUR4” (DOMAIN THERAPEUTICS, priority 2018, published 2022).

As a reminder, the melting point is the temperature, or range, at which the solid turns liquid.

For data set [1], the target named is T1, human mGluR4 (hmGluR4) (Homo sapiens, UniProt Q14833).
T1 construct: expressed in transfected cells; host or cells: HEK-293 cells, transient co-transfection by electroporation
T1 sequence (Q14833 33-912): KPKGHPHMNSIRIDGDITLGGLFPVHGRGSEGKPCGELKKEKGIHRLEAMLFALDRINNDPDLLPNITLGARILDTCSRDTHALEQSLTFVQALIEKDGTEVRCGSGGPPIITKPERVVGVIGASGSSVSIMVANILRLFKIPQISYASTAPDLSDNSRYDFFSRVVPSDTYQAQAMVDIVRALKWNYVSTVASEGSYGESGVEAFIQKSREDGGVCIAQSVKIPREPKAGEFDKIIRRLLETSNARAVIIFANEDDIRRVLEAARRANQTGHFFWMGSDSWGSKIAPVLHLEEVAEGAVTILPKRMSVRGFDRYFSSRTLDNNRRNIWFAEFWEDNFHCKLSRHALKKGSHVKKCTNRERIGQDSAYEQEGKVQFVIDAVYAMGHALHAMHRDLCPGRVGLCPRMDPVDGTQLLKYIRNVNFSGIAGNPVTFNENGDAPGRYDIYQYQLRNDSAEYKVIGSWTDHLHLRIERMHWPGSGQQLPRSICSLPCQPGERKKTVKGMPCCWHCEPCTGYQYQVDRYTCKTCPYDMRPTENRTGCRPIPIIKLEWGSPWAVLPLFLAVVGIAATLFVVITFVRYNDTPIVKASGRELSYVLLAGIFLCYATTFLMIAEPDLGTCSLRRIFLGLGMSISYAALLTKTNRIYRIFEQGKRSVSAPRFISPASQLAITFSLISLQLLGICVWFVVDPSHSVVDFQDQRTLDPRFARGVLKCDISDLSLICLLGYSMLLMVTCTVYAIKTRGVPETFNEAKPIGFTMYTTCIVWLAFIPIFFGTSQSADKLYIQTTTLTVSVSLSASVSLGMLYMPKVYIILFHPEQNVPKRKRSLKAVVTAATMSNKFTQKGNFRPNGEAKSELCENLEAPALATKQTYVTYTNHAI
The data set can be described thus: Calcium assay EC50 determination, positive allosteric modulator activity on hmGluR4 transiently over-expressed in HEK-293 cells. Type of data set: cell-based. Particulars: PAM mode with EC20 glutamate; hmGluR4 in HEK-293 cells; intracellular calcium (Fluo4AM); read-out: mGluR4 positive allosteric modulator activity, half maximal effective concentration (EC50). The procedure, abridged: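 HEK-293 cells transiently co-transfected with hmGluR4, chimeric G protein and glutamate transporters; Fluo4AM calcium read (ex 485/em 525 nm) on FLIPR Tetra. Compound alone 10 min for agonism, then EC20 glutamate with 3 min recording for PAM activity, versus buffer or EC20 glutamate basal.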
On the technique in general: Calcium flux is commonly read through the fluorescence of an indicator in the cells.

Data set [2] relates to haloperidol-induced catalepsy. In words: Haloperidol-induced catalepsy model in the mouse (bar test). The note with it: 1 mg/kg per os 60 minutes after haloperidol (1 mg/kg i.p.), measured between 135 and 270 min after haloperidol injection. Type of data set: in vivo. How it is done:
This method, which detects anti-cataleptic activity, follows those well-known by one skilled in the art and described in the literature (e.g. Pires et al., Braz J Med and Biol Res 38, 1867-1872, 2005; Shiozaki et al., Psychopharmacology 147, 90-95, 1999). Catalepsy is a symptom of Parkinson's disease, and is characterized by muscular rigidity and fixity of posture.
The procedure applied to the compounds of the invention is as follows:
Catalepsy is assessed using the bar test in mice submitted to acute administration of haloperidol (1 mg/kg, intra-peritoneal or i.p.). Mice (male RjOrl:SWISS mice, weighing 30-35 g at the beginning of the experiment) were placed (6 to 9 in each group) in Plexiglas cages, and injected with haloperidol (1 mg/kg i.p.). The catalepsy response of one mouse was measured when the animal maintained an imposed posture with both forelimbs placed on a horizontal 0.9 cm diameter wire bar suspended 4 cm above a platform. The end point of catalepsy was considered to occur when both forelimbs were removed from the bar, the mouse climbed onto the bar or if the animal moved its head in an exploratory manner. A cut-off time of 180 seconds was applied. The degree of catalepsy was scored 45 minutes after haloperidol administration and continued at 45 minutes intervals for a total of 270 minutes. Between determinations, the animals were returned to their home cages.
Compounds 81, 100, 114, 119, 143 and 144 were evaluated at 1 mg/kg, administered per os, 60 minutes after haloperidol, and compared with a vehicle control group.
The anti-cataleptic effect of the compound was compared to vehicle-treated group using ANOVA test followed by the Dunnett's test.

Regarding `Cc1cc(CCN2CCN(C)C(=O)C2)cc2c(=O)[nH]c(-c3cc4sccc4cn3)nc12.Cl` [Compound 143, 8-Methyl-6-[2-(4-methyl-3-oxo-piperazin-1-yl)ethyl]-2-thieno[3,2-c]pyridin-6-yl-3H-quinazolin-4-one hydrochloride], the melting point is over 250 °C. For the same molecule, the EC50 in data set [1] was at most 100 nM. In addition, the “anti-cataleptic effect (mean time of latency spent on the bar) compared to vehicle-treated group” value in data set [2] is recorded as “significant anti-cataleptic effect”.

Molecule `Cc1cc(CN2CCOCC2)cc2c(=O)[nH]c(-c3cc4sccc4cn3)nc12.Cl` [Compound 119, 8-Methyl-6-(morpholinomethyl)-2-(thieno[3,2-c]pyridin-6-yl)quinazolin-4(3H)-one hydrochloride] displayed a melting point of over 250 °C. In addition, the EC50 in data set [1] is at most 100 nM. Further, the “anti-cataleptic effect (mean time of latency spent on the bar) compared to vehicle-treated group” value in data set [2] is reported as “significant anti-cataleptic effect”.
